Results as given in the NIST ThermoML archive (doi:10.1016/j.jct.2012.03.020).
Numbers after ± are expanded uncertainties.

Assays:
[1] = mn = molality of the nth substance listed, in mol/kg; conditions: 101 kPa, Liquid, Pycnometric method
[2] = refractive index (Na D-line) (dimensionless); mn = molality of the nth substance listed, in mol/kg; conditions: 101 kPa, Liquid, Standard Abbe refractometry

Cc1ccc(C(=O)N(O)c2ccccc2)cc1[N+](=O)[O-] [N-hydroxy-4-methyl-3-nitro-N-phenylbenzamide] + CN(C)C=O
Conditions	mass density, 298.15 K [kg/m3]	mass density, 303.15 K [kg/m3]	mass density, 308.15 K [kg/m3]	mass density, 313.15 K [kg/m3]	refractive index, 298.15 K	refractive index, 303.15 K	refractive index, 308.15 K	refractive index, 313.15 K
[1], m1 = 0.0184	947.8 ± 0.6	942.4 ± 0.5	938.4 ± 0.6	933.1 ± 0.6	–	–	–	–
[1], m1 = 0.0368	950.2 ± 0.6	944.9 ± 0.6	941 ± 0.6	935.8 ± 0.6	–	–	–	–
[1], m1 = 0.0551	952.6 ± 0.6	947.4 ± 0.6	943.5 ± 0.6	938.4 ± 0.6	–	–	–	–
[1], m1 = 0.0735	954.8 ± 0.6	949.7 ± 0.6	945.9 ± 0.6	940.9 ± 0.6	–	–	–	–
[1], m1 = 0.0919	957 ± 0.6	952 ± 0.5	948.2 ± 0.6	943.3 ± 0.6	–	–	–	–
[1], m1 = 0.1103	959.1 ± 0.5	954.2 ± 0.5	950.4 ± 0.6	945.7 ± 0.6	–	–	–	–
[1], m1 = 0.1286	961.1 ± 0.5	956.3 ± 0.5	952.6 ± 0.5	947.9 ± 0.6	–	–	–	–
[1], m1 = 0.147	963.1 ± 0.5	958.4 ± 0.5	954.7 ± 0.5	950.1 ± 0.6	–	–	–	–
[1], m1 = 0.1654	965 ± 0.5	960.4 ± 0.5	956.7 ± 0.5	952.2 ± 0.6	–	–	–	–
[1], m1 = 0.1838	966.9 ± 0.5	962.3 ± 0.5	958.7 ± 0.5	954.3 ± 0.6	–	–	–	–
[2], m1 = 0.0184	–	–	–	–	1.4391 ± 0.0005	1.435 ± 0.0005	1.432 ± 0.0005	1.4299 ± 0.0005
[2], m1 = 0.0368	–	–	–	–	1.4406 ± 0.0005	1.437 ± 0.0005	1.4343 ± 0.0005	1.432 ± 0.0005
[2], m1 = 0.0551	–	–	–	–	1.442 ± 0.0005	1.439 ± 0.0005	1.436 ± 0.0005	1.434 ± 0.0005
[2], m1 = 0.0735	–	–	–	–	1.444 ± 0.0005	1.441 ± 0.0005	1.438 ± 0.0005	1.4354 ± 0.0004
[2], m1 = 0.0919	–	–	–	–	1.447 ± 0.0005	1.4441 ± 0.0005	1.44 ± 0.0005	1.437 ± 0.0005
[2], m1 = 0.1103	–	–	–	–	1.4483 ± 0.0004	1.4455 ± 0.0004	1.442 ± 0.0005	1.439 ± 0.0005
[2], m1 = 0.1286	–	–	–	–	1.4496 ± 0.0005	1.4466 ± 0.0004	1.443 ± 0.0005	1.441 ± 0.0005
[2], m1 = 0.147	–	–	–	–	1.452 ± 0.0005	1.448 ± 0.0005	1.446 ± 0.0005	1.4429 ± 0.0005
[2], m1 = 0.1654	–	–	–	–	1.4535 ± 0.0005	1.45 ± 0.0005	1.448 ± 0.0005	1.444 ± 0.0004
[2], m1 = 0.1838	–	–	–	–	1.455 ± 0.0005	1.452 ± 0.0005	1.4494 ± 0.0004	1.445 ± 0.0005

O=C(c1ccccc1)N(O)c1ccccc1 [N-phenylbenzohydroxamic acid] + CN(C)C=O
Conditions	mass density, 298.15 K [kg/m3]	mass density, 303.15 K [kg/m3]	mass density, 308.15 K [kg/m3]	mass density, 313.15 K [kg/m3]	refractive index, 298.15 K	refractive index, 303.15 K	refractive index, 308.15 K	refractive index, 313.15 K
[1], m1 = 0.0234	947.5 ± 0.5	942.1 ± 0.5	938.1 ± 0.6	932.9 ± 0.6	–	–	–	–
[1], m1 = 0.0469	949.7 ± 0.5	944.4 ± 0.5	940.5 ± 0.5	935.4 ± 0.6	–	–	–	–
[1], m1 = 0.0703	951.8 ± 0.5	946.6 ± 0.5	942.8 ± 0.5	937.8 ± 0.6	–	–	–	–
[1], m1 = 0.0938	953.9 ± 0.5	948.8 ± 0.5	945.1 ± 0.5	940.1 ± 0.6	–	–	–	–
[1], m1 = 0.1172	955.9 ± 0.5	950.9 ± 0.5	947.3 ± 0.5	942.4 ± 0.6	–	–	–	–
[1], m1 = 0.1407	957.9 ± 0.5	953 ± 0.5	949.5 ± 0.5	944.5 ± 0.6	–	–	–	–
[1], m1 = 0.1641	959.9 ± 0.5	954.9 ± 0.5	951.5 ± 0.5	946.6 ± 0.6	–	–	–	–
[1], m1 = 0.1876	961.8 ± 0.5	956.9 ± 0.5	953.6 ± 0.5	948.6 ± 0.6	–	–	–	–
[1], m1 = 0.211	963.7 ± 0.5	958.8 ± 0.5	955.6 ± 0.5	950.6 ± 0.6	–	–	–	–
[1], m1 = 0.2345	965.4 ± 0.5	960.7 ± 0.5	957.5 ± 0.5	952.5 ± 0.6	–	–	–	–
[2], m1 = 0.0234	–	–	–	–	1.4275 ± 0.0004	1.426 ± 0.0004	1.4238 ± 0.0004	1.422 ± 0.0004
[2], m1 = 0.0469	–	–	–	–	1.4277 ± 0.0004	1.4269 ± 0.0004	1.4249 ± 0.0004	1.423 ± 0.0004
[2], m1 = 0.0703	–	–	–	–	1.428 ± 0.0004	1.4271 ± 0.0004	1.4259 ± 0.0004	1.424 ± 0.0004
[2], m1 = 0.0938	–	–	–	–	1.4285 ± 0.0004	1.4274 ± 0.0004	1.4266 ± 0.0004	1.425 ± 0.0004
[2], m1 = 0.1172	–	–	–	–	1.4288 ± 0.0004	1.4275 ± 0.0004	1.427 ± 0.0004	1.4261 ± 0.0004
[2], m1 = 0.1407	–	–	–	–	1.4289 ± 0.0004	1.428 ± 0.0004	1.4273 ± 0.0004	1.4265 ± 0.0004
[2], m1 = 0.1641	–	–	–	–	1.4295 ± 0.0004	1.4285 ± 0.0004	1.4276 ± 0.0004	1.4271 ± 0.0004
[2], m1 = 0.1876	–	–	–	–	1.43 ± 0.0004	1.4289 ± 0.0004	1.428 ± 0.0004	1.4273 ± 0.0004
[2], m1 = 0.211	–	–	–	–	1.4305 ± 0.0004	1.4295 ± 0.0004	1.4282 ± 0.0004	1.4274 ± 0.0004
[2], m1 = 0.2345	–	–	–	–	1.431 ± 0.0004	1.43 ± 0.0004	1.4288 ± 0.0004	1.4275 ± 0.0004

O=C(c1ccc([N+](=O)[O-])cc1)N(O)c1ccccc1 [N-hydroxy-4-nitro-N-phenylbenzamide] + CN(C)C=O
Conditions	mass density, 298.15 K [kg/m3]	mass density, 303.15 K [kg/m3]	mass density, 308.15 K [kg/m3]	mass density, 313.15 K [kg/m3]	refractive index, 298.15 K	refractive index, 303.15 K	refractive index, 308.15 K	refractive index, 313.15 K
[1], m1 = 0.0234	947.5 ± 0.5	942.1 ± 0.5	938.1 ± 0.6	932.8 ± 0.6	–	–	–	–
[1], m1 = 0.0469	949.7 ± 0.5	944.4 ± 0.5	940.5 ± 0.5	935.3 ± 0.6	–	–	–	–
[1], m1 = 0.0703	951.9 ± 0.5	946.7 ± 0.5	942.8 ± 0.5	937.7 ± 0.6	–	–	–	–
[1], m1 = 0.0938	954 ± 0.5	948.9 ± 0.5	945.1 ± 0.5	940 ± 0.6	–	–	–	–
[1], m1 = 0.1172	956.1 ± 0.5	951.1 ± 0.5	947.3 ± 0.5	942.3 ± 0.6	–	–	–	–
[1], m1 = 0.1407	958.2 ± 0.5	953.2 ± 0.5	949.5 ± 0.5	944.5 ± 0.6	–	–	–	–
[1], m1 = 0.1641	960.2 ± 0.5	955.3 ± 0.5	951.6 ± 0.5	946.7 ± 0.6	–	–	–	–
[1], m1 = 0.1876	962.2 ± 0.5	957.4 ± 0.5	953.7 ± 0.5	948.8 ± 0.6	–	–	–	–
[1], m1 = 0.211	964.2 ± 0.5	959.4 ± 0.5	955.8 ± 0.5	950.8 ± 0.6	–	–	–	–
[1], m1 = 0.2345	966.1 ± 0.5	961.4 ± 0.5	957.8 ± 0.5	952.9 ± 0.6	–	–	–	–
[2], m1 = 0.0234	–	–	–	–	1.428 ± 0.0004	1.4264 ± 0.0004	1.4242 ± 0.0004	1.4223 ± 0.0004
[2], m1 = 0.0469	–	–	–	–	1.4289 ± 0.0004	1.4274 ± 0.0004	1.4254 ± 0.0004	1.4235 ± 0.0004
[2], m1 = 0.0703	–	–	–	–	1.4294 ± 0.0004	1.4279 ± 0.0004	1.4259 ± 0.0004	1.4244 ± 0.0004
[2], m1 = 0.0938	–	–	–	–	1.4299 ± 0.0004	1.4285 ± 0.0004	1.4266 ± 0.0004	1.4249 ± 0.0004
[2], m1 = 0.1172	–	–	–	–	1.43 ± 0.0004	1.429 ± 0.0004	1.4271 ± 0.0004	1.4258 ± 0.0004
[2], m1 = 0.1407	–	–	–	–	1.4305 ± 0.0004	1.4295 ± 0.0004	1.4276 ± 0.0004	1.4266 ± 0.0004
[2], m1 = 0.1641	–	–	–	–	1.4315 ± 0.0004	1.4302 ± 0.0004	1.4286 ± 0.0004	1.4271 ± 0.0004
[2], m1 = 0.1876	–	–	–	–	1.4325 ± 0.0004	1.4311 ± 0.0004	1.4292 ± 0.0004	1.4275 ± 0.0004
[2], m1 = 0.211	–	–	–	–	1.4329 ± 0.0004	1.4319 ± 0.0004	1.4301 ± 0.0004	1.4284 ± 0.0004
[2], m1 = 0.2345	–	–	–	–	1.433 ± 0.0004	1.4322 ± 0.0004	1.4304 ± 0.0004	1.4291 ± 0.0004
